Experimental data taken from patent US6455075B1, “Method for control of insects on plants and plant tissue” (priority 1996, dated 2002).

Columns and labels:
[1] = system: various species of household plants; conditions: throughout the three week treatment period, most plants in bloom
Description: (§1) Long and 25 ft. Wide, was filled with various species of household plants, of which most had infestations of some type of insect pest. (Table 2) All other treatments were stopped two weeks prior to treatment with the solution of the present invention. Yellow sticky cards were placed throughout the greenhouse for three days prior to treatment and then were counted for the various species of insects present. The greenhouse was then treated with 12 gallons of a 1:50 dilution of the solution of the present invention using a Dram™ hydraulic sprayer. The house was sprayed on three day intervals for a period of three weeks. Sticky cards were placed in selected areas through out the greenhouse during the three week period.

[2] = system: insect populations
Description: as §1

[3] = system: THRIPS
Description: as §1

[4] = system: Botrytis cinerea; conditions: 0.05% Hydrogen Peroxide mist during entire propagation; one mature leaf from each of 10 cuttings, averaged
Description: In this study 500 zonal geranium cuttings were treated with a mist during the entire course of their propagation. One mature leaf from each of 10 terminal stem cuttings following treatment were sampled and the data was averaged.

[5] = system: plant pathogens; conditions: dilute solution
[6] = system: black mold growing on the excrement of the aphids; conditions: leaves of New Guinea Impatiens
[7] = system: fungus gnats; conditions: greenhouse treatment; probably due to removal of food source
Description: (§2) To insure objectivity, the greenhouses selected were not all commonly owned and many varieties of roses were included in the testing. […] The effectiveness of the spray was measured by microbial culture of the surfaces of the greenhouse and the leaf surfaces of the treated and untreated plants. […] It is well known that these fungi are airborne.

[8] = system: Roses; conditions: after six weeks of observation
Description: as §2

[9] = system: total mold count, including Botrytis and those molds causing Powdery Mildew
Description: as §2

[10] = system: mealy bug, white fly, aphids, spider mites, and thrip
Description: as §2

[11] = system: Botrytis and Black Spot Mold; conditions: flowers wetted with dilute solution before wrapping
Description: In the cut flower industry, the moist flowers are wrapped in plastic prior to placement in the shipping boxes for transit. Ice is added to the boxes in many cases to help keep the flowers fresh during transit. This closed, moist environment is very conducive to Botrytis and Black Spot Mold.

[12] = system: root rot and other infectious pathogens; conditions: cuttings dipped in 0.5% hydrogen peroxide, dilute solution in misting system
[13] = system: living plants; conditions: dilute solution

How did the “phytotoxicity or other detrimental effect to the plants” value [1] turn out when `OO` [hydrogen peroxide] was run?
Its value is “no evidence of phytotoxicity”.

And the “reduction of insect populations” value ([2]; 10 days and post 5 treatments)?
The value was “marked reduction of insect populations”.

What about the “reduction in insect populations” value ([2]; after one treatment, 72 hr card exposure) of the same molecule?
Its value is “did not indicate any significant reduction”.

What about the “reduction of Thrips” value ([3]; 10 days and post 5 treatments, seven day card exposure) of the same molecule?
Its value is “greatly reduced”.

And the “average Thrips present per card” value ([3]; after subsequent treatments, 72 hour exposure time)?
Its value is 7-10.

And the MICRO-ORGANISMS/LEAF [4]?
The MICRO-ORGANISMS/LEAF was 38.

And the “plant pathogens present on the surfaces” value [5]?
Its value is “either totally eradicated or substantially reduced”.

And the “effect on black mold” value [6]?
Its value is “quickly neutralized the mold”.

What about the “effect on fungus gnats” value [7] of the same molecule?
Its value is “eliminated”.

What about the “adverse effects upon the plants” value [8] of the same molecule?
The value was “No adverse effects”.

And the total mold count ([9]; 1 % solution sprayed at least four times)?
The total mold count was “killed or seriously reduced the total mold count”.

And the “treated plants and surfaces free of total fungi (microbial culture)” value ([9]; after the first application of 1 % hydrogen peroxide)?
Its value is about 100%.

And the “recontamination by fungi (microbial culture)” value ([9]; daily applications of 500 PPM over several weeks)?
The value was “no recontamination by fungi occurred”.

What about the “effect upon insect pests present in the greenhouse” value ([10]; field trials) of the same molecule?
The value was “lethal effect”.

And the “effect on larval stages of insect pests” value ([10]; greenhouse treatment of the preceding example)?
Its value is “destruction of the larval stages”.

What about the “appearance of detrimental fungi” value [11] of the same molecule?
The value was “prevented and or delayed the appearance of the detrimental fungi”.

And the cutting loss [12]?
Its cutting loss is “virtually eliminated cutting loss”.

And the “adverse effects on the plants” value [13]?
Its value is “no adverse affects”.
